Biological target: T1, BRM (Homo sapiens, UniProt P51531)
T1 construct: made in house; host or cells: High Five insect cells
Assay: ATPase catalytic activity of BRM, ADP-Glo in vitro biochemical assay
Conditions: for IC50: ATPase catalytic activity, ADP-Glo, 30 nM BRM, 400 μM ATP; for Ratio*: ratio of BRG1 IC50 to BRM IC50
Experimental: The ATPase catalytic activity of BRM or BRG-1 was measured by an in vitro biochemical assay using ADP-Glo™ (Promega, V9102). The ADP-Glo™ kinase assay is performed in two steps once the reaction is complete. The first step is to deplete any unconsumed ATP in the reaction. The second step is to convert the reaction product ADP to ATP, which will be utilized by the luciferase to generate luminesce and be detected by a luminescence reader, such as Envision.
The assay reaction mixture ([…]) contains 30 nM of BRM or BRG-1, 20 nM salmon sperm DNA (from Invitrogen, UfraPure™ Salmon Sperm DNA Solution, cat #15632011), and 400 μM of ATP in the ATPase assay buffer, which comprises of 20 mM Tris, pH 8, 20 mM MgCl2, 50 mM NaCl, 0.1% Tween-20, and 1 mM fresh DTT (Piercer™ DTT (Dithiothreitol), cat #20290). The reaction is initiated by the addition of the 2.5 μL ATPase solution to 2.5 μL ATP/DNA solution on low volume white Proxiplate-384 plus plate (PerkinElmer, cat #6008280) and incubates at room temperature for 1 hour. Then, following addition of 5 μL of ADP-Glo™ Reagent provided in the kit, the reaction incubates at room temperature for 40 minutes. Then, 10 μL of Kinase Detection Reagent provided in the kit is added to convert ADP to ATP, and the reaction incubates at room temperature for 60 minutes. Finally, luminescence measurement is collected with a plate-reading luminometer, such as Envision.

T1 sequence (P51531 whole entry): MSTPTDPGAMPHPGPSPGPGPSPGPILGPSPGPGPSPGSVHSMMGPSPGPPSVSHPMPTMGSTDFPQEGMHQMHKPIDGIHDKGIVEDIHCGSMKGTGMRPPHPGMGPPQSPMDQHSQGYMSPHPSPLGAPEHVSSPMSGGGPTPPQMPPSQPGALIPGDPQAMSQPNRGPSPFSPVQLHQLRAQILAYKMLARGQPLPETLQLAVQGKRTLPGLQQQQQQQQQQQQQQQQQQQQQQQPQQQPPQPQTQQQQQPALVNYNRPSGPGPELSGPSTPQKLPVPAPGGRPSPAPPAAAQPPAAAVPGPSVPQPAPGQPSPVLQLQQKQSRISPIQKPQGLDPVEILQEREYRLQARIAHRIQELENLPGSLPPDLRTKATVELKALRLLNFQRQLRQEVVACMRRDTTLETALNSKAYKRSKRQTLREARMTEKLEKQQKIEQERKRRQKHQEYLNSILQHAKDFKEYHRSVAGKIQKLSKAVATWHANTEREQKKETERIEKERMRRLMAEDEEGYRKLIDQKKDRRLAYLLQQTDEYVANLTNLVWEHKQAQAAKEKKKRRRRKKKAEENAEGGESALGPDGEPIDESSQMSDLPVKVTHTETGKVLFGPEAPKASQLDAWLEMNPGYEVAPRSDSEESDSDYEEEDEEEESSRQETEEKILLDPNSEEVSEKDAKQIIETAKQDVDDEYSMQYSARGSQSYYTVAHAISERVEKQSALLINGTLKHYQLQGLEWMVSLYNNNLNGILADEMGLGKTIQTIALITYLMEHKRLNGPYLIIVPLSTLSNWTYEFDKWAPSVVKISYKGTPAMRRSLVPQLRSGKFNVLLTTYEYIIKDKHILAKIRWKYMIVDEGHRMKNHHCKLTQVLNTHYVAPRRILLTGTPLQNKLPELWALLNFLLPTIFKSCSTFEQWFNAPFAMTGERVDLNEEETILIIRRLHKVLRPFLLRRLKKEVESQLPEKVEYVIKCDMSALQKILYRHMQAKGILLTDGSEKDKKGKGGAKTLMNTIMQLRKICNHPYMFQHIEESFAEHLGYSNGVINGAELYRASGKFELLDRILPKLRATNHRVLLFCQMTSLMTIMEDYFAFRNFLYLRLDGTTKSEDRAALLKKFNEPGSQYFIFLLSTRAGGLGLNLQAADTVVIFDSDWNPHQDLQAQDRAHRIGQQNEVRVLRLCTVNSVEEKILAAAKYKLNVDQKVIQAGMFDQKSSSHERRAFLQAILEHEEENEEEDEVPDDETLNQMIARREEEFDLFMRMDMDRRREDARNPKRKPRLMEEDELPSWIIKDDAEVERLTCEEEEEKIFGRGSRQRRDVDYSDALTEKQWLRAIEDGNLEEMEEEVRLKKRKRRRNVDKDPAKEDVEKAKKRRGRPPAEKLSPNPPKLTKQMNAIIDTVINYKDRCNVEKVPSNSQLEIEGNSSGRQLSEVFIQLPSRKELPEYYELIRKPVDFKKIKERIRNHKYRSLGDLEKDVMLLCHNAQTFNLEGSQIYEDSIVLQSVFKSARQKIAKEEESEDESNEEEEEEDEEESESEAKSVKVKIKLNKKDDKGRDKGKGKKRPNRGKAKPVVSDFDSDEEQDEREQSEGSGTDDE

Row | IC50 | Ratio* | SMILES
1 | 843 nM | 5.93 | CN1CC[C@@H](Oc2cccc(-c3ccc4cnc(CNC(=O)c5ccc6c(c5)S(=O)(=O)CCOC6)cc4n3)n2)C1 [Compound 328]
2 | 1350 nM | 3.71 | COc1c(-c2ccc3cnc(CNC(=O)c4ccc5c(c4)S(=O)(=O)CCOC5)cc3n2)cccc1C(F)F [Compound 343]
3 |  | 1.00 | C[C@@H]1CN(c2cccc(-c3ccc4cnc(CNC(=O)c5cc(C6(C)CC6)c6c(c5)S(=O)(=O)CCOC6)cc4n3)n2)C[C@H](C)O1 [Compound 351]
4 | 3310 nM | 1.51 | O=C(NCc1cc2nc(N3C(=O)Cc4ccccc43)ccc2cn1)c1ccc2c(c1)S(=O)(=O)CCOC2 [Compound 356]
5 |  | 1.00 | CC[C@@H]1COCc2ccc(C(=O)NCc3cc4nc(-c5cccc(N6C[C@@H](C)O[C@@H](C)C6)n5)ccc4cn3)cc2S1(=O)=O [Compound 359]
6 | 974 nM | 5.14 | CC[C@H]1COCc2ccc(C(=O)NCc3cc4nc(-c5cccc(N6C[C@@H](C)O[C@@H](C)C6)n5)ccc4cn3)cc2S1(=O)=O [Compound 360]
7 | 206 nM | 24.25 | C[C@@H]1CN(c2cccc(-c3ccc4cnc(CNC(=O)c5ccc6c(c5)S(=O)(=O)[C@@H](C)CC6)cc4n3)n2)C[C@H](C)O1 [Compound 363]
8 |  | 1.00 | COc1ccc(C(C)(F)F)cc1-c1ccc2cnc(CNC(=O)c3ccc4c(c3)S(=O)(=O)CCOC4)cc2n1 [Compound 368]
9 | 1320 nM | 3.79 | O=C(NCc1cc2nc(-n3cccc(N4CCOCC4)c3=O)ccc2cn1)c1ccc2c(c1)S(=O)(=O)CCOC2 [Compound 401]
10 | 253 nM | 19.79 | CCOc1cc(C)cc(-c2ccc3cnc(CNC(=O)c4ccc5c(c4)S(=O)(=O)[C@@H](C)COC5)cc3n2)n1 [Compound 417]
11 | 192 nM | 25.98 | C[C@@H]1CN(c2cccc(-c3ccc4cnc(CNC(=O)c5ccc6c(c5)S(=O)(=O)CCO[C@H]6C5CC5)cc4n3)n2)C[C@H](C)O1 [Compound 459]
12 | 1820 nM | 2.75 | O=C(NCc1cc2nc(N3CCc4nccnc4C3)ccc2cn1)c1ccc2c(c1)S(=O)(=O)CCOC2 [Compound 546]
13 | 1700 nM | 2.94 | CC1Cc2cccnc2N(c2ccc3cnc(CNC(=O)c4ccc5c(c4)S(=O)(=O)CCOC5)cc3n2)C1 (stereo not shown) [Compound 556]
14 | 3930 nM | 1.27 | C[C@@H]1CN(c2cccc(-c3ccc4cnc(CNC(=O)c5ccc6c(c5)S(=O)(=O)CCC(C)(C)O6)cc4n3)n2)C[C@H](C)O1 [Compound 559]
15 | 425 nM | 11.77 | CO[C@H](C)c1ccc2c(n1)N(c1ccc3cnc(CNC(=O)c4ccc5c(c4)S(=O)(=O)CCOC5)cc3n1)CCC2 [Compound 562]
16 |  | 16.52 | O=C(NCc1cc2nc(N3CCCc4ccc(C(F)F)nc43)ccc2cn1)c1ccc2c(c1)S(=O)(=O)CCOC2 [Compound 563]
17 |  | 6.87 | O=C(NCc1cc2nc(N3CCCc4ccc(C(F)F)nc43)ccc2cn1)c1ccc2c(c1)S(=O)(=O)CCOC2 [Compound 571]
18 | 1240 nM | 4.05 | C[C@@H]1CN(c2cccc(-c3ccc4cnc(CNC(=O)c5ccc6c(c5)S(=O)(=O)CC[C@H](C(F)F)O6)cc4n3)n2)C[C@H](C)O1 [Compound 582]
19 | 793 nM | 6.31 | CC[C@H]1CCS(=O)(=O)c2cc(C(=O)NCc3cc4nc(-c5cccc(N6C[C@@H](C)O[C@@H](C)C6)n5)ccc4cn3)ccc2O1 [Compound 584]
20 | 2230 nM | 2.24 | COC1Cc2cccnc2N(c2ccc3cnc(CNC(=O)c4ccc5c(c4)S(=O)(=O)CCOC5)cc3n2)C1 (stereo not shown) [Compound 633]

More lines, now with the values behind:

Row | SMILES | IC50 | Ratio*
21 | C[C@@H]1CN(c2cccc(-c3ccc4cnc(CNC(=O)c5cccc(S(=O)(=O)C6CC6)c5)cc4n3)n2)C[C@H](C)O1 [Compound 371] | 196 nM | 25.45
22 | C[C@@H]1CN(c2cccc(-c3ccc4cnc(CNC(=O)c5cc(Cl)c6c(c5)S(=O)(=O)[C@H](C)COC6)cc4n3)n2)C[C@H](C)O1 [Compound 432] | 1500 nM | 3.34
23 | C[C@@H]1COCc2ncc(C(=O)NCc3cc4nc(-c5cccc(C6CC6)n5)ccc4cn3)cc2S1(=O)=O [Compound 455] |  | 1.00
24 | Cc1cc(C(=O)NCc2cc3nc(-c4cccc(N5C[C@@H](C)O[C@@H](C)C5)n4)ccc3cn2)cc2c1OCC[C@@H](C)S2(=O)=O [Compound 461] | 1590 nM | 3.15
25 | Cc1cc(C(=O)NCc2cc3nc(-c4cccc(N5C[C@@H](C)O[C@@H](C)C5)n4)ccc3cn2)cc2c1COC[C@@H](C)S2(=O)=O [Compound 462] | 1720 nM | 2.92
26 | C[C@@H]1CN(c2cccc(-c3ccc4cnc(CNC(=O)c5cc(Cl)c6c(c5)S(=O)(=O)[C@H](C)CCO6)cc4n3)n2)C[C@H](C)O1 [Compound 486] | 1160 nM | 4.29
27 | C[C@@H]1CCS(=O)(=O)c2cc(C(=O)NCc3cc4nc(-c5cccc(N6C[C@@H](C)O[C@@H](C)C6)n5)ccc4cn3)cc(Cl)c2O1 [Compound 505] | 539 nM | 9.28
28 | C[C@@H]1CN(c2cccc(-c3ccc4cnc(CNC(=O)c5ccc6c(c5)S(=O)(=O)[C@@H](C)CO[C@@H]6C)cc4n3)n2)C[C@H](C)O1 [Compound 517] | 429 nM | 11.66
29 | C[C@@H]1CN(c2cccc(-c3ccc4cnc(CNC(=O)c5ccc6c(c5)S(=O)(=O)[C@H](C)CO[C@H]6C)cc4n3)n2)C[C@H](C)O1 [Compound 518] | 4560 nM | 1.10
30 | C[C@@H]1CN(c2cccc(-c3ccc4cnc(CNC(=O)c5ccc6c(c5)S(=O)(=O)C5(CC6)CC5)cc4n3)n2)C[C@H](C)O1 [Compound 531] |  | 28.30
31 | CC1CN(c2cccc(-c3ccc4cnc(CNC(=O)c5ccc6c(c5)S(=O)(=O)C(C)COC6C)cc4n3)n2)CC(C)O1 (stereo not shown) [Compound 535] | 637 nM | 7.84
32 | Cc1cc(C(=O)NCc2cc3nc(-c4cccc(N5C[C@@H](C)O[C@@H](C)C5)n4)ccc3cn2)cc2c1O[C@H](C)CCS2(=O)=O [Compound 541] | 131 nM | 38.11
33 | C[C@@H]1CN(c2cccc(-c3ccc4cnc(CNC(=O)c5cc(Cl)c6c(c5)S(=O)(=O)CCO[C@H]6C)cc4n3)n2)C[C@H](C)O1 [Compound 547] | 293 nM | 17.08
34 | C[C@@H]1CN(c2cccc(-c3ccc4cnc(CNC(=O)c5ccc6c(c5)S(=O)(=O)[C@H](C)CN6C)cc4n3)n2)C[C@H](C)O1 [Compound 560] | 498 nM | 10.04
35 | CC1CN(c2cccc(-c3ccc4cnc(CNC(=O)c5cnc6c(c5)S(=O)(=O)CCC5CC65)cc4n3)n2)CC(C)O1 (stereo not shown) [Compound 577] |  | 3.78
36 | CC1CN(c2cccc(-c3ccc4cnc(CNC(=O)c5cnc6c(c5)S(=O)(=O)CCC5CC65)cc4n3)n2)CC(C)O1 (stereo not shown) [Compound 579] |  | 4.40
37 | C[C@@H]1CN(c2cccc(-c3ccc4cnc(CNC(=O)c5cnc6c(c5)S(=O)(=O)[C@H](C)CC6)cc4n3)n2)C[C@H](C)O1 [Compound 596] | 681 nM | 7.34
38 | C[C@@H]1CN(c2cccc(-c3ccc4cnc(CNC(=O)c5cc(C6CCC6)c6c(c5)S(=O)(=O)CCOC6)cc4n3)n2)C[C@H](C)O1 [Compound 631] | 1190 nM | 4.19

— patent US20230416248A1, “COMPOUNDS AND USES THEREOF” (Foghorn Therapeutics Inc., priority 2020, published 2023)
